Measured values taken from patent US20210156844A1, “TMEM16A Modulation for Diagnostic or Therapeutic Use in Pulmonary Hypertension (PH)” (Bayer Aktiengesellschaft, priority 2017, published 2021).

Experiments:
PASMC = experiment: Membrane potential (Em) measurement, current clamp, primary PASMC; format: cell-based, human; details: BBR 30 μM, T16Ainh-A01 10 μM
Description: PASMC were grown on glass coverslips and serum starved for 24-48 hours. The coverslips were perfused with a bath solution composed of (in mM) NaCl 141, KCl 4.7, HEPES 10, glucose 10, CaCl2 1.8, MgCl2 1.2, pH 7.4 (NaOH) at room temperature. Micropipettes were pulled of borosilicate glass capillaries (GC150F-10, Harvard Apparatus Ltd, Edenbridge, Kent, UK) with a P-2000 electrode puller (Sutter Instruments, Novato Ca, USA), and fire polished using a micro-forge (MF-830, Narishige, Tokyo, Japan) to give a final resistance of 3-5 MΩ when filled with the pipette solution (composition in mM: NaCl 10, KCl 125, K2ATP 5, HEPES 10, EGTA 5, MgCl2 4, pH set to 7.2 with KOH). Em was measured with a HEKA EPC10 patch clamp amplifier (Dr. Schulze GmbH, Lambrecht, Germany) in the current clamp mode as described by others (Mason, M J, et al., Biophys. J. (2005) 88, 739-750; Perkins, KL, J. Neurosci. Methods (2006) 154, 1-18).
The liquid junction potential was calculated with the Clampex 10.0 software (Molecular Devices, Sunnyvale Calif., USA) and an online correction was made for each recording. Both at baseline and during perfusion with 30 μM benzbromarone (BBR, Sigma, St Louis Mo., USA) or 10 μM T16Ainh-A01 (Tocris, Bristol, UK), only those recordings in which (1) the Em was constant for at least 3 minutes, and (2) the seal resistance was constantly high (>5 GΩ) were used for the analyses.
The HEK-293 cells were transfected overnight either with the CLCA1 gene containing or with the empty plasmid, using the Effectene transfection reagent kit (Qiagen) and DMEM F-12 complete medium. On the next day, the medium was changed to serum-free SMC Medium. The resulting conditioned media were collected 24 hours later and applied on the PASMC of healthy donors. After 24 hours of incubation, the Em of the PASMC was measured as described above. To confirm the presence of CLCA1 in the conditioned medium, 20 μL of conditioned medium as well as control medium (collected from cells transfected with the empty plasmide) were analyzed with western blot as described above, using a CLCA1 antibody (ab108851, Abcam).

[1] = system: U-46619 preconstricted isolated mouse PA; experiment: Measurement of pulmonary artery tone ex vivo; details: cumulatively increasing concentrations 0.1 to 30 μM; U-46619 30 nM
Description: Pulmonary artery rings were isolated from male C57BL/6J mice (20-25 weeks old, Charles River, Wilmington Mass., USA), as described by Jain et al. (Jain, P P, et al., Int. J. Nanomedicine (2014) 9, 3249-3261). Following stable contraction (approx. 30 minutes post-addition of U-46619, 30 nM), the arteries were subjected to cumulatively increasing concentrations (0.1 to 30 μM) of the TMEM6A blockers T16Ainh-A01 (Tocris) and benzbromarone (Sigma) in order to analyze the concentration-response relationships.

## CCc1c(C)nc(SCC(=O)Nc2nc(-c3ccc(OC)cc3)cs2)[nH]c1=O [T16Ainh-A01, 2-[(5-Ethyl-1,6-dihydro-4-methyl-6-oxo-2-pyrimidinyl)thio]-N-[4-(4-methoxyphenyl)-2-thiazolyl]-acetamide]
PASMC; PASMC of IPAH patients
  reversal of the Em of IPAH-PASMC to the levels of PASMC isolated from healthy donors: close
PASMC; PASMC of healthy donors
  effect on Em of PASMC of donors: no effect
[1]
  vasorelaxation of preconstricted PA: dose-dependent vasorelaxation
